From patent US10065945B2, “Isoquinoline derivatives as MGAT2 inhibitors” (Merck Sharp & Dohme Corp., priority 2014, dated 2018)
pIC50: −log10 of the molar value.

Molecular target: MGAT2 Human (Homo sapiens (Human), UniProt Q3SYC2)
Experiment: MGAT2 Human IC50
Assay type: biochemical

Sequence of MGAT2 Human (Q3SYC2 whole entry): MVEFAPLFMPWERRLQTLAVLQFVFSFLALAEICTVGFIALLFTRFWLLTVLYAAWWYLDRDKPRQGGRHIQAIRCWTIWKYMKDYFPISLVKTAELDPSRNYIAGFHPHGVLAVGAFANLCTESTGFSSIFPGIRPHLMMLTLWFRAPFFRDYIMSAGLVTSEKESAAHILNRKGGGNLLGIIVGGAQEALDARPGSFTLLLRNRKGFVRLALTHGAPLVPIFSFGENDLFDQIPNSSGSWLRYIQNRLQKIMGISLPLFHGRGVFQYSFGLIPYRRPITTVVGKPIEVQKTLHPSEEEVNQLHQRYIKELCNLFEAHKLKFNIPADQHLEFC

SMILES | pIC50
C[C@H](c1ccc(OCC(F)(F)F)nc1)N1CCc2ccc(S(=O)(=O)Nc3noc(-c4ccccc4)n3)cc2C1 [Example 6] | 8.04
CCc1noc(NS(=O)(=O)c2ccc3c(c2)CN([C@H](C)c2ccc(OCC(F)(F)F)nc2)CC3)n1 [Example 7] | 8.09
CC(C)c1nc(NS(=O)(=O)c2ccc3c(c2)CN([C@H](C)c2ccc(OCC(F)(F)F)nc2)CC3)no1 [Example 8] | 7.89
Cc1c(NS(=O)(=O)c2ccc3c(c2)CN(Cc2ccc(OCC(F)(F)F)nc2)CC3)noc1C(C)(C)C [Example 15, N-(5-(tert-butyl)-4-methylisoxazol-3-yl)-2-((6-(2,2,2-trifluoroethoxy)pyridin-3-yl)methyl)-1,2,3,4-tetrahydroisoquinoline-7-sulfonamide] | 7.96
CC(C)(C)c1onc(NS(=O)(=O)c2ccc3c(c2)CN(Cc2ccc(OCC(F)(F)F)nc2)CC3)c1F [Example 16, N-(5-(tert-butyl)-4-fluoroisoxazol-3-yl)-2-((6-(2,2,2-trifluoroethoxy)pyridin-3-yl)methyl)-1,2,3,4-tetrahydroisoquinoline-7-sulfonamide] | 7.80
Cc1onc(NS(=O)(=O)c2ccc3c(c2)CN([C@H](C)c2ccc(OCC(F)(F)F)nc2)CC3)c1-c1cnn(C)c1 [Example 17, (R)—N-(5-methyl-4-(1-methyl-1H-pyrazol-4-yl)isoxazol-3-yl)-2-(1-(6-(2,2,2-trifluoroethoxy)pyridin-3-yl)ethyl)-1,2,3,4-tetrahydroisoquinoline-7-sulfonamide] | 7.62
Cc1c(NS(=O)(=O)c2ccc3c(c2)CN(Cc2cnc(SCC(F)(F)F)nc2)CC3)noc1C(C)(C)C [Example 20, N-(5-(tert-butyl)-4-methylisoxazol-3-yl)-2-((2-((2,2,2-trifluoroethyl)thio)pyrimidin-5-yl)methyl)-1,2,3,4-tetrahydroisoquinoline-7-sulfonamide] | 8.24
C/C=C/c1c(NS(=O)(=O)c2ccc3c(c2)CN(Cc2cnc(OCC(F)(F)F)s2)CC3)noc1C(C)(C)C [Example 21, (E)-N-(5-(tert-butyl)-4-(prop-1-en-1-yl)isoxazol-3-yl)-2-((2-(2,2,2-trifluoroethoxy)thiazol-5-yl)methyl)-1,2,3,4-tetrahydroisoquinoline-7-sulfonamide] | 8.41
C[C@H](c1ccc(OCC(F)F)nc1)N1CCc2ccc(S(=O)(=O)Nc3cc(C(C)(C)C)on3)cc2C1 [Example 22] | 8.19
C[C@H](c1ccc(OCC(F)F)nc1)N1CCc2ccc(S(=O)(=O)Nc3noc(C4CC4)n3)cc2C1 [Example 23, (R)-5-cyclopropyl-3-(2-(1-(6-(2,2-difluoroethoxy)pyridin-3-yl)ethyl)-1,2,3,4-tetrahydroisoquinoline-7-sulfonamido)-1,2,4-oxadiazol-2-ium 2,2,2-trifluoroacetate] | 8.09
C[C@H](c1cnc(OCC(F)F)cn1)N1CCc2ccc(S(=O)(=O)Nc3noc(C4CC4)n3)cc2C1 [Example 24, (R)-5-cyclopropyl-3-(2-(1-(5-(2,2-difluoroethoxy)pyrazin-2-yl)ethyl)-1,2,3,4-tetrahydroisoquinoline-7-sulfonamido)-1,2,4-oxadiazol-2-ium 2,2,2-trifluoroacetate] | 7.71
C[C@H](c1ccc(OCC2CC(F)(F)C2)nc1)N1CCc2ccc(S(=O)(=O)Nc3noc(C4CC4)n3)cc2C1 [Example 26, (R)-5-cyclopropyl-3-(2-(1-(6-((3,3-difluorocyclobutyl)methoxy)pyridin-3-yl)ethyl)-1,2,3,4-tetrahydroisoquinoline-7-sulfonamido)-1,2,4-oxadiazol-2-ium 2,2,2-trifluoroacetate] | 7.70
Cc1c(NS(=O)(=O)c2ccc3c(c2)CN(C(=O)c2ccc(OCC(F)(F)F)nc2)CC3)noc1C(C)(C)C [Example 27, N-(5-(tert-butyl)-4-methylisoxazol-3-yl)-2-(6-(2,2,2-trifluoroethoxy)nicotinoyl)-1,2,3,4-tetrahydroisoquinoline-7-sulfonamide] | 7.39
Cc1c(NS(=O)(=O)c2ccc3c(c2)CN([C@H](C)c2ccc(OCC4CC(F)(F)C4)nc2)CC3)noc1C(C)(C)C [Example 28, 7-(N-(5-(tert-butyl)-4-methylisoxazol-3-yl)sulfamoyl)-2-((R)-1-(6-((3,3-difluorocyclobutyl)methoxy)pyridin-3-yl)ethyl)-1,2,3,4-tetrahydroisoquinolin-2-ium 2,2,2-trifluoroacetate] | 8.07
COCCOc1ccc(C(=O)N2CCc3ccc(S(=O)(=O)Nc4noc(C(C)(C)C)c4C)cc3C2)cn1 [Example 30, N-(5-(tert-butyl)-4-methylisoxazol-3-yl)-2-(6-(2-methoxyethoxy)nicotinoyl)-1,2,3,4-tetrahydroisoquinoline-7-sulfonamide] | 7.51

Second part, the compound after the results:

pIC50 | SMILES
8.05 | C[C@H](c1cccc(Cl)c1)N1CCc2ccc(S(=O)(=O)Nc3cc(C(C)(C)C)on3)cc2C1 [Example 1, (R)—N-(5-(tert-butyl)isoxazol-3-yl)-2-(1-(3-chlorophenyl)ethyl)-1,2,3,4-tetrahydroisoquinoline-7-sulfonamide]
8.22 | C[C@H](c1cc(F)cc(F)c1F)N1CCc2ccc(S(=O)(=O)Nc3cc(C(C)(C)C)on3)cc2C1 [Example 2, (R)—N-(5-(tert-butyl)isoxazol-3-yl)-2-(1-(2,3,5-trifluorophenyl)ethyl)-1,2,3,4-tetrahydroisoquinoline-7-sulfonamide]
8.05 | C[C@H](c1ccccc1)N1CCc2ccc(S(=O)(=O)Nc3cc(C(C)(C)C)on3)cc2C1 [Example 3, (R)—N-(5-(tert-butyl)isoxazol-3-yl)-2-(1-phenylethyl)-1,2,3,4-tetrahydroisoquinoline-7-sulfonamide]
7.96 | CCSc1ncc([C@@H](C)N2CCc3ccc(S(=O)(=O)Nc4cc(C(C)(C)C)on4)cc3C2)cn1 [Example 4, (R)—N-(5-(tert-butyl)isoxazol-3-yl)-2-(1-(2-(ethylthio)pyrimidin-5-yl)ethyl)-1,2,3,4-tetrahydroisoquinoline-7-sulfonamide]
8.35 | Cc1c(NS(=O)(=O)c2ccc3c(c2)CN([C@H](C)c2ccc(OCC(F)(F)F)nc2)CC3)noc1C(C)(C)C [Example 5, (R)—N-(5-(tert-butyl)-4-methylisoxazol-3-yl)-2-(1-(6-(2,2,2-trifluoroethoxy)pyridin-3-yl)ethyl)-1,2,3,4-tetrahydroisoquinoline-7-sulfonamide]
7.96 | C[C@H](c1ccc(OCC(F)(F)F)nc1)N1CCc2ccc(S(=O)(=O)Nc3cc(C(C)(C)C)on3)cc2C1 [Example 9, (R)—N-(5-(tert-butyl)isoxazol-3-yl)-2-(1-(6-(2,2,2-trifluoroethoxy)pyridin-3-yl)ethyl)-1,2,3,4-tetrahydroisoquinoline-7-sulfonamide]
7.77 | C[C@H](c1cnc(OCC(F)(F)F)nc1)N1CCc2ccc(S(=O)(=O)Nc3noc(C(C)(C)C)c3Br)cc2C1 [Example 10, (R)—N-(4-bromo-5-(tert-butyl)isoxazol-3-yl)-2-(1-(2-(2,2,2-trifluoroethoxy)pyrimidin-5-yl)ethyl)-1,2,3,4-tetrahydroisoquinoline-7-sulfonamide]
7.70 | C[C@H](c1cnc(OCC(F)(F)F)nc1)N1CCc2ccc(S(=O)(=O)Nc3noc(C(C)(C)C)c3-c3cccc(F)c3)cc2C1 [Example 11, (R)—N-(5-(tert-butyl)-4-(3-fluorophenyl)isoxazol-3-yl)-2-(1-(2-(2,2,2-trifluoroethoxy)pyrimidin-5-yl)ethyl)-1,2,3,4-tetrahydroisoquinoline-7-sulfonamide]
7.85 | C[C@H](c1cnc(OCC(F)(F)F)nc1)N1CCc2ccc(S(=O)(=O)Nc3cc(C(C)(C)C)on3)cc2C1 [Example 12, (R)—N-(5-(tert-butyl)isoxazol-3-yl)-2-(1-(2-(2,2,2-trifluoroethoxy)pyrimidin-5-yl)ethyl)-1,2,3,4-tetrahydroisoquinoline-7-sulfonamide]
7.80 | C[C@H](c1ccc(OCC(F)(F)F)nc1)N1CCc2ccc(S(=O)(=O)Nc3noc(C(C)(C)C)c3Cl)cc2C1 [Example 13, (R)—N-(5-(tert-butyl)-4-chloroisoxazol-3-yl)-2-(1-(6-(2,2,2-trifluoroethoxy)pyridin-3-yl)ethyl)-1,2,3,4-tetrahydroisoquinoline-7-sulfonamide]
8.51 | Cc1c(NS(=O)(=O)c2ccc3c(c2)CN([C@H](C)c2cnc(OCC(F)(F)F)cn2)CC3)noc1C(C)(C)C [Example 14, (R)—N-(5-(tert-butyl)-4-methylisoxazol-3-yl)-2-(1-(5-(2,2,2-trifluoroethoxy)pyrazin-2-yl)ethyl)-1,2,3,4-tetrahydroisoquinoline-7-sulfonamide]
7.64 | C[C@H](c1ccc(OCC(F)(F)F)nc1)N1CCc2ccc(S(=O)(=O)Nc3cc(C(C)(C)O)on3)cc2C1 [Example 18, (R)—N-(5-(2-hydroxypropan-2-yl)isoxazol-3-yl)-2-(1-(6-(2,2,2-trifluoroethoxy)pyridin-3-yl)ethyl)-1,2,3,4-tetrahydroisoquinoline-7-sulfonamide]
7.74 | C[C@H](c1ccc(OCC(F)(F)F)nc1)N1CCc2ccc(S(=O)(=O)Nc3cc(C(C)(C)F)on3)cc2C1 [Example 19, (R)—N-(5-(2-fluoropropan-2-yl)isoxazol-3-yl)-2-(1-(6-(2,2,2-trifluoroethoxy)pyridin-3-yl)ethyl)-1,2,3,4-tetrahydroisoquinoline-7-sulfonamide]
8.34 | Cc1c(NS(=O)(=O)c2ccc3c(c2)CN([C@H](C)c2cnc(OCC(F)F)cn2)CC3)noc1C(C)(C)C [Example 25, 7-(N-(5-(tert-butyl)-4-methylisoxazol-3-yl)sulfamoyl)-2-((R)-1-(5-(2,2-difluoroethoxy)pyrazin-2-yl)ethyl)-1,2,3,4-tetrahydroisoquinolin-2-ium 2,2,2-trifluoroacetate]
8.02 | Cc1c(NS(=O)(=O)c2ccc3c(c2)CN([C@H](C)c2ccc(OCC(F)(F)F)cc2)CC3)noc1C(C)(C)C [Example 29, 7-(N-(5-(tert-butyl)-4-methylisoxazol-3-yl)sulfamoyl)-2-((R)-1-(4-(2,2,2-trifluoroethoxy)phenyl)ethyl)-1,2,3,4-tetrahydroisoquinolin-2-ium 2,2,2-trifluoroacetate]
